# Test results as given in US10233180B2, “Substituted nitrogen-containing heterocyclic derivatives, pharmaceutical compositions comprising the same and applications of antitumor thereof” (ZHEJIANG UNIVERSITY, priority 2014, dated 2019).
# Key:
# [1] = system: human colon cancer cell strain HCT-116; assay: MTT assay, inhibition of tumor cell growth in vitro, 72 h; format: cell-based; details: Homo sapiens, HCT-116, MTT, read-out: Antitumor proliferative activities of tumor cell (IC50, μM) HCT-116 (converted)
# Procedure: (§1) First, inhibitory activity on tumor proliferation in vitro is determined and the structure activity relationship is preliminarily studied, in which different solid tumor cell strains are selected for determining the antitumor activities in vitro of the synthesized compounds.
# (§2) Cell strains: Human ovarian cancer cell strain (OVCAR8), colon adenocarcinoma cell strain (HCT-116)
# HCT-116: RPMI 1640+Fetal Bovine Serum
# (§3) Preparing method of medicines: Dissolving the medicine in DMSO to make a 50 mM stock solution, and diluting it according to a certain ratio to obtain 5 different concentrations.
# (§4) Two selected tumor cells OVCAR8 and HCT-116 are incubated at 37° C. in a 5% CO2 incubator, which are subcultured when cells grow up to a density of 70˜90% (adherent cells are subcultured after digesting by Duck's EDTA) for later experiments.
# (§5) Compounds are dissolved and diluted by dimethyl sulfoxide (DMSO), and tumor cells OVCAR8 and HCT-116 are seeded in a 96-well plate at a density of 4000 cells/200 μl/well, 1 μl of the compounds are added to each well with the final concentration of 50 μM, 10 μM, 2 μM, 0.4 μM and 0.08 μM, which is incubated for 72 h at 37° C. in a 5% CO2 incubator with DMSO (1%) as blank control.
# (§6) The calculating formula of cell inhibitory rate is: cell inhibitory rate %=(the OD value of the control group−the OD value of the medication group)/the OD value of the control group×100%, the half maximal inhibitory concentration (IC50) is obtained by Bliss method.
# Akt1 = molecular target: T1, Akt1 (Homo sapiens, UniProt P31749); assay: AKT1/PKBα KinEASE FP Fluorescein Green Assay (fluorescence polarization kinase kit); format: biochemical; details: 1 h reaction, read-out: Inhibitory activities against Akt1 (IC50)
# T1 construct: purchased 32-021
# Procedure: Second, method for determining the inhibitory activities of substituted nitrogen-containing heterocyclic derivatives in the present invention against Akt1 enzyme:
# The inhibitory activities of compounds against AKT1/PKBα are determined by using AKT1/PKBα KinEASE™ FP Fluorescein Green Assay (Green fluorescence detection system of Kinase).
# Principle adopted by the fluorescence polarization detection of protein kinase B is a competitive reaction: the phosphorylated tracers labeled with fluorescence will compete with unlabeled phosphorylated products produced by reacting with protein kinase B to combine anti-serine antibodies. […] However, in the reaction mixture containing phosphorylated products, fewer tracers will combine with antibodies (fluorescent tracers are replaced from the antibodies), and signals sent our occur depolarizing. Therefore, the change of polarization is directly related to the activity of protein kinase B in the reaction.
# Each of 0.25 μl of compounds with a concentration of 50 μM and the positive control are added to a 384-well plate at room temperature, and each sample is provided with three parallel wells, and then 10 μl of STK Substrate 3 Working Solution, 5 μl of AKT1/PKBα Working Solution, 10 μl of ATP Working Solution are added to each sample respectively, the mixtures are slightly vibrated and shaked for a few minutes. Reaction is carried out just after the adding 10 μl of ATP Working Solution, from this time, reacting for 1 h. After 1 h, 5 μl of STK Stop Mix and 5 μl of STK Antibody Mix are added to each sample respectively to stop the reaction. The samples are maintained for 4 h at room temperature after adding is completed, the polarization values of samples are determined by fluorescence polarization of Microplate Reader (Detection of the signals is valid within 24 h), the inhibitory rate of compounds against the enzyme is calculated by polarization value, and thereby IC50 is calculated.
# Experiment is set up four control groups at the same time, which are Buffer Control Wells, Tracer Control Wells, No Enzyme Wells and blank control of dimethyl sulfoxide, respectively. Thus obtained data are used to calculate the inhibitory rate (the preparation methods of above various solution required for determining the activities of compounds against enzyme refer to the specification of the kit of AKT1/PKBα KinEASE™ FP Fluorescein Green Assay Catalog #32-021).
# [2] = system: Human ovarian cancer cell strain OVCAR-8; assay: MTT assay, inhibition of tumor cell growth in vitro, 72 h; format: cell-based; details: Homo sapiens, OVCAR-8, MTT, read-out: Antitumor proliferative activities of tumor cell (IC50, μM) OVCAR-8
# Procedure: as §1, §2
# Medium: OVCAR8: RPMI 1640+Fetal Bovine Serum
# as §3, §4, §5, §6
# T1 sequence (P31749 whole entry): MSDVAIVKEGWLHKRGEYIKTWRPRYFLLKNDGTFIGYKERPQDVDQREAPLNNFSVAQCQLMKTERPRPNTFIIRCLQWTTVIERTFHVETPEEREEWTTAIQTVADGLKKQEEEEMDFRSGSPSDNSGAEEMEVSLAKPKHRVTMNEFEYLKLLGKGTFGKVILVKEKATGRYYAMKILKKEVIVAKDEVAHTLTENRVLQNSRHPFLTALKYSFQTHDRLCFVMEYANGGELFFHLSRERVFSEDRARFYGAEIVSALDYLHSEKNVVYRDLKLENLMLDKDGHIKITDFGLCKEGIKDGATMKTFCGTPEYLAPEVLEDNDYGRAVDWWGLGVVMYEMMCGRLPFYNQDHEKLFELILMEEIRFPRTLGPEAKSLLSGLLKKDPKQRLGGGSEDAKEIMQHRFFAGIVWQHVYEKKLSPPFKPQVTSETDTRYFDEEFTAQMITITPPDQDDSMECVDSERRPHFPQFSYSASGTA
IC50 [1] [µM],IC50 (Akt1) [nM],IC50 [2] [µM],SMILES
1.25,0.1,0.12,"Cn1ncc(Cl)c1-c1cc(C(=O)N[C@@H]2CNC(CC(=O)NCCO)C[C@H]2c2ccc(Cl)c(Cl)c2)oc1Cl (stereo partly drawn) [Compound 125, 5-chloro-4-(4-chloro-1-methyl-1H-pyrazol-5-yl)-N-((3S,4S)-4-(3,4-dichlorophenyl)-6-(2-((2-hydroxyethyl)amido)-2-oxoethyl)piperidin-3-yl)furan-2-formamide]"
2.04,52,1.26,"CCc1c(-c2c(Cl)cnn2C)cc(C(=O)N[C@H]2CNCC[C@@H]2C2CCC(F)C2)n1C (stereo partly drawn) [Compound 15, 5-ethyl-1-methyl-4-(4-chloro-1-methyl-1H-pyrazol-5-yl)-N-(3,4-trans-4-(3-fluorocyclopentanyl)piperidin-3-yl)-1H-pyrrole-2-formamide]"
23.8,348,7.94,"Cc1cnn(C)c1-c1cnc(C(=O)N[C@H]2CNCC[C@@H]2c2ccc(F)c(F)c2)cc1F (racemic) [Compound 46, 4-fluoro-5-(1,4-dimethyl-1H-pyrazol-5-yl)-N-(3,4-trans-4-(3,4-difluorophenyl)piperidin-3-yl)pyridinyl-2-formamide]"
0.69,14,1.83,"Cn1ncc(Cl)c1-c1ccc(C(=O)N[C@@H]2CNCC[C@H]2c2ccc(F)c(F)c2)c(-c2csc(Cl)c2)c1 [Compound 90, 4-(4-chloro-1-methyl-1H-pyrazol-5-yl)-2-(5-chlorothiophene-3-yl)-N-((3S, 4S)-4-(3,4-difluorophenyl)piperidin-3-yl)benzamide]"
5.89,17,1.82,"Cn1ncc(Br)c1-c1coc(C(=O)N[C@H]2CNCC[C@@H]2c2ccc(C(F)(F)F)cc2)c1 (racemic) [Compound 27, 4-(4-bromo-1-methyl-1H-pyrazol-5-yl)-N-(3,4-trans-4-(4-trifluoromethylphenyl)piperidin-3-yl)furan-2-formamide]"
4.08,19,3.77,"Cn1ncc(Cl)c1-c1ccc(C(=O)N[C@@H]2CNCC[C@H]2c2cccc(F)c2)cc1N [Compound 79, 3-amido-4-(4-chloro-1-methyl-1H-pyrazol-5-yl)-N-((3S,4S)-4-(3-fluorophenyl)piperidin-3-yl)benzamide]"
0.07,0.1,0.09,"Cn1ncc(Cl)c1-c1cc(C(=O)N[C@@H]2CNC(CCNCC(O)CO)C[C@H]2c2ccc(Cl)c(Cl)c2)oc1Cl (stereo partly drawn) [Compound 123, 5-chloro-4-(4-chloro-1-methyl-1H-pyrazol-5-yl)-N-((3S,4S)-4-(3,4-dichlorophenyl)-6-(2-((2,3-dihydroxypropyl)amido)ethyl)piperidin-3-yl)furan-2-formamide]"
10.8,48,5.79,"CC1CCC([C@H]2CCNC[C@@H]2NC(=O)c2ncc(-c3c(Cl)cnn3C)c(Cl)n2)CC1 (stereo partly drawn) [Compound 55, 4-chloro-5-(4-chloro-1-methyl-1H-pyrazol-5-yl)-N-(3,4-trans-4-(4-methylcyclohexane)piperidin-3-yl)pyrimidine-2-formamide]"
0.95,0.5,0.92,"Cn1ncc(Cl)c1-c1cc(C(=O)N[C@@H]2CNC(CC(O)CO)C[C@H]2c2ccc(F)c(F)c2)oc1Cl (stereo partly drawn) [Compound 128, 5-chloro-4-(4-chloro-1-methyl-1H-pyrazol-5-yl)-N-((3S,4S)-4-(3,4-difluorophenyl)-6-(2,3-dihydroxypropyl)piperidin-3-yl)furan-2-formamide]"
1.72,3,0.14,"Cn1ncc(Cl)c1-c1cc(C(=O)N[C@@H]2CNC(CCO)C[C@H]2c2ccc(Cl)c(Cl)c2)oc1Cl (stereo partly drawn) [Compound 113, 5-chloro-4-(4-chloro-1-methyl-1H-pyrazol-5-yl)-N-((3S,4S)-4-(3,4-dichlorophenyl)-6-(2-hydroxyethyl)piperidin-3-yl)furan-2-formamide]"
8.3,62,3.88,"Cc1cccc([C@H]2CCNC[C@@H]2NC(=O)c2cc(Cl)c(-c3ncnn3C)o2)c1 (racemic) [Compound 7, 4-chloro-5-(1-methyl-1H-1,2,4-triazol-5-yl)-N-(3,4-trans-4-(3-methylphenyl)piperidin-3-yl)furan-2-formamide]"
4.1,0.5,1.06,"CCCC1C[C@@H](c2ccc(Cl)c(Cl)c2)[C@H](NC(=O)c2cc(-c3c(Cl)cnn3C)c(Cl)o2)CN1 (stereo partly drawn) [Compound 130, 5-chloro-4-(4-chloro-1-methyl-1H-pyrazol-5-yl)-N-((3S,4S)-4-(3,4-dichlorophenyl)-6-propylpiperidin-3-yl)furan-2-formamide]"
2.81,5,1.11,"Cn1ncc(Cl)c1-c1ccc(C(=O)N[C@@H]2CNC(CCNS(C)(=O)=O)C[C@H]2c2cccc(F)c2)cc1Cl (stereo partly drawn) [Compound 103, 3-chloro-4-(4-chloro-1-methyl-1H-pyrazol-5-yl)-N-((3S,4S)-4-(3-fluorophenyl)-6-(2-(methylsulfonamido)ethyl)piperidin-3-yl)benzamide]"
3.04,323,24.3,"Cn1ncc(Cl)c1-c1cc(C(=O)N[C@H]2CNC[C@@H]2c2ccc(C(F)(F)F)cc2)oc1Cl (racemic) [Compound 69, 5-chloro-4-(4-chloro-1-methyl-1H-pyrazol-5-yl)-N-(3,4-trans-4-(4-trifluoromethylphenyl)pyrrolidin-3-yl)furan-2-formamide]"
2.27,972,6.01,"Cc1cnn(C)c1-c1cnc(C(=O)N[C@H]2CNCC[C@@H]2c2ccc[nH]2)nc1C (racemic) [Compound 60, 4-methyl-5-(1,4-dimethyl-1-methyl-1H-pyrazol-5-yl)-N-(3,4-trans-4-(pyrrole-2-yl)piperidins-3-yl)pyrimidine-2-formamide]"
1.1,1,6.67,"Cn1ncc(-c2ccncc2)c1-c1ccc(C(=O)N[C@@H]2CNCC[C@H]2c2cccc(F)c2)s1 [Compound 140, N-((3S, 4S)-4-(3-fluorophenyl)piperidin-3-yl)-5-(1-methyl-4-(pyridinyl-4-yl)-1H-pyrazol-5-yl)thiophene-2-formamide]"
4.28,3,0.92,"Cn1ncc(Cl)c1-c1cc(C(=O)N[C@@H]2CNC(CC(N)=O)C[C@H]2c2ccc(Cl)c(Cl)c2)oc1Cl (stereo partly drawn) [Compound 117, N-((3S,4S)-6-(2-amido-2-oxoethyl)-4-(3,4-dichlorophenyl)piperidin-3-yl)-5-chloro-4-(4-chloro-1-methyl-1H-pyrazol-5-yl)furan-2-formamide]"
2.5,1,1.52,"CCC[C@H]1CNC[C@@H](NC(=O)c2ccc(-c3c(Cl)cnn3C)s2)[C@@H]1c1cccc(F)c1 [Compound 151, 5-(4-chloro-1-methyl-1H-pyrazol-5-yl)-N-((3S, 4S, 5R)-4-(3-fluorophenyl)-5-propylpiperidin-3-yl)thiophene-2-formamide]"
20.4,272,10.6,"Cn1ncc(Br)c1-c1coc(C(=O)N[C@H]2CNC[C@@H]2c2ccc(C(F)(F)F)cc2)c1 (racemic) [Compound 67, 4-(4-bromo-1-methyl-1H-pyrazol-5-yl)-N-(3,4-trans-4-(4-trifluoromethylphenyl)pyrrolidin-3-yl)furan-2-formamide]"
